Data as given in US20210380595A1 (ARAXES PHARMA LLC, priority 2018, published 2021).

biological target: T1, KRAS G12C 1-169, his-tagged protein, GDP-loaded (Homo sapiens, UniProt P01116, G12C); assay: Biochemical assay: covalent modification of KRAS G12C measured by mass spectrometry (RapidFire/TOF or Q-Exactive); format: binding; conditions: tested at 32 μM
T1 construct: KRAS G12C 1-169, his-tagged protein, GDP-loaded
Method: Test compounds were prepared as 10 mM stock solutions in DMSO (Fisher cat. #BP-231-100). KRAS G12C 1-169, his-tagged protein, GDP-loaded is diluted to 2 μM or 0.5 μM in buffer (20 mM Hepes, 150 mM NaCl, 1 mM MgCl2). Compounds were tested for activity as follows:
Compounds were diluted to 50× final test concentration in DMSO in 96-well storage plates. Compound stock solutions were vortexed before use and observed cwerefully for any sign of precipitation. Dilutions were as follow: • For 32 μM final compound concentration, compounds were diluted to 1600 μM (3 μL 10 mM compound stock +15.75 μL DMSO and mixed well by pipetting. • For 8 μM final compound concentration, compounds were diluted to 400 μM (2 μL 10 mM compound stock +48 μL DMSO) and mixed well by pipetting. 49 μL of the stock protein solution was added to each well of a 96-well PCR plate (Fisher cat#1423027). 1 μl of the diluted 50× compounds were added to appropriate wells in the PCR plate using 12-channel pipettor. Reactions were mixed carefully and thoroughly by pipetting up/down with a 200 μL multi-channel pipettor. The plate was sealed well with aluminum plate seal, and protein and compound were allowed to react for a desired amount of time. 5 μL of 2% formic acid (Fisher cat#A117) in de-ionized H2O was then added to each well followed by mixing with a pipette to quench the reaction. The plate was then resealed with aluminum seal and stored frozen on dry ice until analyzed as described below.
The above described assays were analyzed by mass spectrometry according to one of the following two procedures:
The MS instrument was set to positive polarity, 2 GHz resolution, and low mass (1700) mode and allowed to equilibrate for 30 minutes. The instrument was then calibrated, switched to acquisition mode and the appropriate method loaded.
After another 30 minute equilibration time, a blank batch (i.e., buffer) was run to ensure equipment is operating properly. The samples were thawed at 37° C. for 10 minutes, briefly centrifuged, and transfered to the bench top. Wells A1 and H12 were spiked with 1 μL 500 μM internal standard peptide, and the plates centrifuged at 2000×g for 5 minutes. The method was then run and masses of each individual well recorded.
The masses (for which integration data is desired) for each well were pasted into the platemap and exported from the analysis. Masses for the internal standards were exported as well. The data at 50 ppm was extracted for the +19 charge state, and identity of well A1 was assigned using the internal standard spike and integrated. Peak data was exported as a TOF list and the above steps were repeated individually, for the +20, +21, +22, +23, +24, and +25 charge states.
The masses and peak intensities of KRAS G12C protein species were measured using a Dionex RSLCnano system (Thermo Scientific) connected to a Q Exactive Plus mass spectrometer (Thermo Scientific).
20 μL of sample was loaded onto a Aeris™ 3.6 μm WIDEPORE C4 200 Å, LC Column 50×2.1 mm column maintained at 40° C. at a flow rate of 600 μL/min with 80% Solvent A (0.1% formic acid in H2O) and 20% Solvent B (0.1% formic acid in acetonitrile). The liquid chromatography conditions were 20% solvent B for 1 minute, 20% to 60% solvent B for 1.5 minutes, 60% to 90% solvent for 0.5 minute, 90% solvent B for 0.2 minute, 90% to 20% solvent B for 0.2 minute, and then equilibrated for 1.6 minute before the following sample injection. The flow rate was maintained at 600 μL/min throughout the sample analysis.
The mass spectrometer was operated in profile mode at a resolution of 17500, 5 microscans, using 50 msec max injection time and an AGC target of 1×10^6, and a full mass range from 800-1850 m/z was recorded. The intact protein mode was applied for optimal ion transfer and maximum sensitivity. The ionization method was electrospray ionization, which used a spray voltage of 4 kV, sheath gas flow set to 50 AU, auxiliary gas flow set to 10 AU and sweep gas flow set to 1 AU. […]

Compound	Bind %
C=CC(=O)N1CC2(CCN(c3cc(N4CCOCC4)cc(-c4c(C)ccc5[nH]ncc45)c3C#N)C2)C1 [Compound I-7, 2-(2-acryloyl-2,6-diazaspiro[3.4]octan-6-yl)-6-(5-methyl-1H-indazol-4-yl)-4-morpholino-benzonitrile]	+++ (+++ indicates binding activity greater than 75%)
C=CC(=O)N1CC2(CCN(c3cccc(-c4c(C)ccc5[nH]ncc45)c3F)C2)C1 [Compound I-8, 1-(6-(2-fluoro-3-(5-methyl-1H-indazol-4-yl)phenyl)-2,6-diazaspiro[3.4]octan-2-yl)prop-2-en-1-one]	+ (+ indicates binding activity greater than 0% and up to 50%)
C=CC(=O)N1CCC2(C1)CN(c1cccc(-c3c(C)ccc4[nH]ncc34)c1C#N)C2 [Compound I-9, 2-(6-acryloyl-2,6-diazaspiro[3.4]octan-2-yl)-6-(5-methyl-1H-indazol-4-yl)benzonitrile]	+ (+ indicates binding activity greater than 0% and up to 50%)
C=CC(=O)N1CCC2(C1)CN(c1cccc(-c3c(O)cccc3F)c1C#N)C2 [Compound I-10, 3-(6-acryloyl-2,6-diazaspiro[3.4]octan-2-yl)-2′-fluoro-6′-hydroxy-[1,1′-biphenyl]-2-carbonitrile]	+ (+ indicates binding activity greater than 0% and up to 50%)
C=CC(=O)N1CCC2(C1)CN(c1cccc(-c3c(C)ccc4cnn(C)c34)c1C#N)C2 [Compound I-11, 2-(6-acryloyl-2,6-diazaspiro[3.4]octan-2-yl)-6-(1,6-dimethyl-1H-indazol-7-yl)benzonitrile]	+ (+ indicates binding activity greater than 0% and up to 50%)
CC#CC(=O)N1CC2(CCN(c3cccc(-c4c(C)ccc5cnn(C)c45)c3C#N)C2)C1 [Compound I-12, 2-(2-(but-2-ynoyl)-2,6-diazaspiro[3.4]octan-6-yl)-6-(1,6-dimethyl-1H-indazol-7-yl)benzonitrile]	+ (+ indicates binding activity greater than 0% and up to 50%)
C=CC(=O)N1CCC2(CCN(c3cccc(-c4c(C)ccc5cnn(C)c45)c3C#N)C2)C1 (stereo not shown) [Compound I-13, 2-(7-acryloyl-2,7-diazaspiro[4.4]nonan-2-yl)-6-(1,6-dimethyl-1H-indazol-7-yl)benzonitrile]	+ (+ indicates binding activity greater than 0% and up to 50%)
C=CC(=O)N1CC2(CCN(c3cc(OC)cc(-c4c(C)ccc5[nH]ncc45)c3C#N)C2)C1 [Compound I-14, 2-(2-acryloyl-2,6-diazaspiro[3.4]octan-6-yl)-4-methoxy-6-(5-methyl-1H-indazol-4-yl)benzonitrile]	+++ (+++ indicates binding activity greater than 75%)
C=CC(=O)N1CCC2(CC1)CN(c1cccc(-c3c(C)ccc4cnn(C)c34)c1C#N)C2 [Compound I-15, 2-(7-acryloyl-2,7-diazaspiro[3.5]nonan-2-yl)-6-(1,6-dimethyl-1H-indazol-7-yl)benzonitrile]	+ (+ indicates binding activity greater than 0% and up to 50%)
C=CC(=O)N1CC2(CCN(c3cc(N4CCOCC4)cc(-c4c(C)ccc5cnn(C)c45)c3C#N)C2)C1 [Compound I-16, 2-(2-acryloyl-2,6-diazaspiro[3.4]octan-6-yl)-6-(1,6-dimethyl-1H-indazol-7-yl)-4-morpholino-benzonitrile]	+++ (+++ indicates binding activity greater than 75%)
C=CC(=O)N1CC2(CCN(c3cccc(-c4c(O)cccc4F)c3C#N)C2)C1 [Compound I-17, 3-(2-acryloyl-2,6-diazaspiro[3.4]octan-6-yl)-2′-fluoro-6′-hydroxy-[1,1′-biphenyl]-2-carbonitrile]	+ (+ indicates binding activity greater than 0% and up to 50%)
CC#CC(=O)N1CC2(CCN(c3cccc(-c4c(O)cccc4F)c3C#N)C2)C1 [Compound I-18, 3-(2-(but-2-ynoyl)-2,6-diazaspiro[3.4]octan-6-yl)-2′-fluoro-6′-hydroxy-[1,1′-biphenyl]-2-carbonitrile]	+ (+ indicates binding activity greater than 0% and up to 50%)
C=CC(=O)N1CC2(CCN(c3cccc(-c4c(C)ccc5[nH]nc(N)c45)c3C#N)C2)C1 [Compound I-19, 2-(2-acryloyl-2,6-diazaspiro[3.4]octan-6-yl)-6-(3-amino-5-methyl-1H-indazol-4-yl)benzonitrile]	+++ (+++ indicates binding activity greater than 75%)
C=CC(=O)N1CC2(CCN(c3cc(OCc4ccccn4)cc(-c4c(C)ccc5[nH]ncc45)c3C#N)C2)C1 [Compound I-20, 2-(2-acryloyl-2,6-diazaspiro[3.4]octan-6-yl)-6-(5-methyl-1H-indazol-4-yl)-4-(pyridin-2-ylmethoxy) benzonitrile]	+++ (+++ indicates binding activity greater than 75%)
C=CC(=O)N1CC2(CCN(c3cc(OC[C@@H]4CCCN4C)cc(-c4c(C)ccc5[nH]ncc45)c3C#N)C2)C1 [Compound I-21, 2-(2-acryloyl-2,6-diazaspiro[3.4]octan-6-yl)-6-(5-methyl-1H-indazol-4-yl)-4-(((S)-1-methylpyrrolidin-2-yl)methoxy) benzonitrile]	+++ (+++ indicates binding activity greater than 75%)
C=CC(=O)N1CCC2(CCN(c3cccc(-c4c(C)ccc5[nH]ncc45)c3C#N)C2)C1 (stereo not shown) [Compound I-22, 2-(7-acryloyl-2,7-diazaspiro[4.4]nonan-2-yl)-6-(5-methyl-1H-indazol-4-yl)benzonitrile]	+ (+ indicates binding activity greater than 0% and up to 50%)
CC#CC(=O)N1CC2(CCN(c3cccc(-c4c(C)ccc5[nH]nc(N)c45)c3C#N)C2)C1 [Compound I-23, 2-(3-amino-5-methyl-1H-indazol-4-yl)-6-(2-(but-2-ynoyl)-2,6-diazaspiro[3.4]octan-6-yl)benzonitrile]	+ (+ indicates binding activity greater than 0% and up to 50%)
C=CC(=O)N1CC2(CCN(c3cc(N4CCC(N(C)C)CC4)cc(-c4c(C)ccc5[nH]ncc45)c3C#N)C2)C1 [Compound I-24, 2-(2-acryloyl-2,6-diazaspiro[3.4]octan-6-yl)-4-(4-(dimethylamino)piperidin-1-yl)-6-(5-methyl-1H-indazol-4-yl)benzonitrile]	+++ (+++ indicates binding activity greater than 75%)
C=CC(=O)N1CC2(CCN(c3ccc(C)c(-c4c(C)ccc5[nH]ncc45)c3C#N)C2)C1 [Compound I-25, 6-(2-acryloyl-2,6-diazaspiro[3.4]octan-6-yl)-3-methyl-2-(5-methyl-1H-indazol-4-yl)benzonitrile]	++ (++ indicates binding activity from 50 to 75%)

same assay, conditions: tested at a concentration of 8 μM

Compound	Bind %
C=CC(=O)N1CC2(CCN(c3cc(N4CC(N(C)C)C4)cc(-c4c(C)ccc5[nH]ncc45)c3C#N)C2)C1 [Compound I-26, 2-(2-acryloyl-2,6-diazaspiro[3.4]octan-6-yl)-4-(3-(dimethylamino)azetidin-1-yl)-6-(5-methyl-1H-indazol-4-yl)benzonitrile]	+++ (+++ indicates binding activity greater than 75%)
C=CC(=O)N1CC2(CCN(c3cc(OCCCN(C)C)cc(-c4c(C)ccc5[nH]ncc45)c3C#N)C2)C1 [Compound I-27, 2-(2-acryloyl-2,6-diazaspiro[3.4]octan-6-yl)-4-(3-(dimethylamino)propoxy)-6-(5-methyl-1H-indazol-4-yl)benzonitrile]	++ (++ indicates binding activity from 50 to 75%)
C=CC(=O)N1CC2(CCN(c3cc(OCc4ccccn4)cc(-c4c(C)ccc5cnn(C)c45)c3C#N)C2)C1 [Compound I-28, 2-(2-acryloyl-2,6-diazaspiro[3.4]octan-6-yl)-6-(1,6-dimethyl-1H-indazol-7-yl)-4-(pyridin-2-ylmethoxy) benzonitrile]	+++ (+++ indicates binding activity greater than 75%)
